Reference: article PMC6753678, “Fueling Open Innovation for Malaria Transmission-Blocking Drugs: Hundreds of Molecules Targeting Early Parasite Mosquito Stages” (Frontiers in Microbiology, 2019)
pIC50: −log10 of the molar value.

Experiments:
[1] = test system: P. falciparum late stage (stages IV-V) gametocytes; design: method as in Almela et al 2016; details: P. falciparum late stage gametocyte ATP assay, TCAMS screen; ref Almela et al 2016; read-out: Pf GCT ATP IC50; cited from earlier work
[2] = test system: P. falciparum late stage (stages IV-V) gametocytes; test: P. falciparum late stage gametocyte ATP depletion assay (Pf GC-ATP); details: 1: YES; 0: NO; >10-fold selectivity over cytotoxicity
[3] = test system: HepG2 cells; test: HepG2 cytotoxicity assay; details: HepG2 cytotoxicity unified across screens; >25 set to 25.00
Outline: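 Cells at 2,500 per well in MEM with 10% fetal bovine serum and 1% NEAA were exposed to test compounds for 48 h at 37°C, 5% CO2. Viability was read by fluorescence, with percent inhibition calculated against 50 μM doxorubicin (positive) and DMSO (negative) controls.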

Row | Structure (SMILES) | pIC50 [1] | Is compound selective in assay? Pf GC-ATP active? [2] | Unified cytotox [3]
1 | O=C(O)C(F)(F)F.O=S(=O)(NCCN1CCCC1)c1cccc(-c2ccc(CNCc3ccc(F)cc3)cc2)c1 [TCMDC-132289] | 5.57 | 0 (0: NO) | 7.40 µM
2 | CC(C)CNCc1ccc(-c2ccc(CN(CCCN3CCN(C)CC3)C(=O)CCC3CCCC3)cc2)cc1.O=C(O)C(F)(F)F [TCMDC-140559] | 6.27 | 0 (0: NO) | 5.39 µM
3 | CC(CCCCC(=O)Nc1ccc(CC(C)NCCc2cccc(Cl)c2)cc1)NCCc1cccc(Cl)c1 (stereo not drawn) [TCMDC-139799] | 5.78 | 0 (0: NO) | 6.59 µM
4 | Cl.c1ccc2c(CNCCCN3CCN(CCCNCc4c5ccccc5cc5ccccc45)CC3)c3ccccc3cc2c1 [TCMDC-137909] | 6.96 | 1 (1: YES) | 6.28 µM
5 | CN(C)Cc1ccc(-c2cccc(Nc3nccc(NCC(O)c4ccccc4)n3)c2)cc1 (stereo not drawn) [TCMDC-136467] | 6.05 | 0 (0: NO) | 5.87 µM
6 | COc1ccc(CNCc2ccc(F)cc2)cc1-c1ccc(S(=O)(=O)NCCN2CCCC2)cc1.O=C(O)C(F)(F)F [TCMDC-132294] | 5.92 | 0 (0: NO) | 6.50 µM
7 | COc1cc2ccccc2cc1OCCCN1CCN(CC(c2ccc(F)cc2)N2CCN(C(C)C)CC2)CC1.Cl (stereo not drawn) [TCMDC-135496] | 5.90 | 0 (0: NO) | 3.72 µM
8 | CCCCCOc1ccc(C(=NC)N(CCCCC)CCCCC)c2ccccc12.I [TCMDC-137703] | 6.05 | 0 (0: NO) | 6.30 µM
9 | CCNCc1cccc(-c2ccc3ccnc(N)c3c2)c1 [TCMDC-136869] | 5.78 | 0 (0: NO) | 12.50 µM
10 | Cc1cccc2[nH]cc(C3CCN(CC4CCC(NC(=O)/C=C/c5ccc(Cl)c(Cl)c5)CC4)CC3)c12.Cl (stereo not drawn) [TCMDC-140137] | 5.84 | 0 (0: NO) | 2.95 µM
11 | C=C(C)Cn1cc(C2CCN(CCN3CCC(CNC(=O)c4ccc(-c5ccc(C#N)cc5)cc4)CC3)CC2)c2ccccc21 [TCMDC-138854] | 5.53 | 0 (0: NO) | 3.70 µM
12 | CCN(CC)CCCNc1ncc2c(-c3ccc(NC(=O)Nc4cc(C(F)(F)F)ccc4F)cc3)nn(C)c2n1.O=C(O)C(F)(F)F [TCMDC-141583] | 5.46 | 0 (0: NO) | 9.50 µM
13 | COc1cc(NCC(C)CNCc2cn(Cc3ccccc3)c3ccccc23)nc2ccccc12 (stereo not drawn) [TCMDC-140496] | 5.77 | 0 (0: NO) | 5.00 µM
14 | CC(CCCC(=O)Nc1ccc(CC(C)NCCc2cccc(Cl)c2)cc1)NCCc1cccc(Cl)c1 (stereo not drawn) [TCMDC-139798] | 6.09 | 0 (0: NO) | 4.50 µM
15 | Fc1ccc2[nH]c(-c3ccc(-c4ccc(CN5CCC(CCN6CCCCC6)CC5)cc4)s3)nc2c1.O=C(O)C(F)(F)F [TCMDC-133932] | 6.85 | 1 (1: YES) | 3.79 µM
16 | COc1ccc2nc3cc(Cl)ccc3c(NCCN3CCN(C)CC3)c2c1 [TCMDC-137476] | 5.73 | 1 (1: YES) | 19.33 µM
17 | COc1ccc(CNCCc2cccs2)cc1-c1cccc(S(=O)(=O)NCCN2CCCC2)c1.O=C(O)C(F)(F)F [TCMDC-132479] | 5.77 | 0 (0: NO) | 11.40 µM
18 | CC(C)CNCc1ccc(-c2cccc(CN(CCN(C)C)C(=O)CCC3CCCC3)c2)cc1.O=C(O)C(F)(F)F [TCMDC-140553] | 6.27 | 1 (1: YES) | 5.50 µM
19 | CN1CCN(CCCCNc2c3ccccc3nc3ccccc23)CC1 [TCMDC-137479] | 5.88 | 0 (0: NO) | 3.39 µM
20 | Cc1cccc2nc(-c3ccc(-c4ccc(CN5CCC(CCN6CCCCC6)CC5)cc4)cc3)[nH]c12.O=C(O)C(F)(F)F [TCMDC-133929] | 6.57 | 1 (1: YES) | 3.70 µM
21 | CC(C)CCNC(=O)c1cnc2c(O)cccc2c1Nc1cccc(NC(=O)c2ccc(F)cc2)c1.O=C(O)C(F)(F)F [TCMDC-139606] | 5.90 | 0 (0: NO) | 5.27 µM

Row | Structure (SMILES) | pIC50 [1] | Is compound selective in assay? Pf GC-ATP active? [2] | Unified cytotox [3]
22 | CCN(CC)CCOc1ccc(C(O)(C#CC(O)(c2ccc(OCCN(CC)CC)cc2)c2ccc([N+](=O)[O-])cc2)c2ccc([N+](=O)[O-])cc2)cc1 (stereo not drawn) [TCMDC-137201] | 6.66 | 1 (1: YES) | 6.20 µM
23 | CN(C)CCCNc1nccc(N(C)c2ccc(NC(=O)Nc3cc(C(F)(F)F)ccc3F)cc2)n1.O=C(O)C(F)(F)F [TCMDC-141633] | 6.00 | 1 (1: YES) | 17.30 µM
24 | Cl.O=C(/C=C/c1ccc(Cl)c(Cl)c1)N1CCC(CCN2CCC(c3c[nH]c4cnccc34)CC2)CC1 [TCMDC-140136] | 6.70 | 1 (1: YES) | 7.21 µM
25 | O=C(Nc1cccc(Oc2ccccc2)c1)N[C@H]1CCN(Cc2ccc(OCCCN3CCCCC3)cc2)C1 [TCMDC-141785] | 5.95 | 0 (0: NO) | 3.52 µM
26 | CCCCCCNC(=N)c1ccc(OCCCCCOc2ccc(C(=N)NCCCCCC)cc2)cc1.Cl [TCMDC-137619] | 6.51 | 1 (1: YES) | 5.39 µM
27 | Br.C=CCNC(CCCCC)c1ccc(OCCOc2ccc(C(CCCCC)NCC=C)cc2)cc1 (stereo not drawn) [TCMDC-137483] | 6.04 | 0 (0: NO) | 5.80 µM
28 | COc1ccc(CNCc2ccc(F)cc2)cc1-c1ccc(OC)c(S(=O)(=O)NCCN2CCCC2)c1.O=C(O)C(F)(F)F [TCMDC-132295] | 6.14 | 1 (1: YES) | 11.40 µM
29 | COc1cc(Br)c(S(=O)(=O)n2cc(CN3CCC(N)CC3)c3cc(Cl)ccc32)cc1OC.O=C(O)C(F)(F)F [TCMDC-136384] | 5.62 | 0 (0: NO) | 6.70 µM
30 | Cc1cccc2nc(-c3cccc(-c4cccc(CNCCN5CCNCC5)c4)c3)[nH]c12.O=C(O)C(F)(F)F [TCMDC-132873] | 6.30 | 1 (1: YES) | 7.76 µM
31 | CCCCCCCN1CC[C@@H](CCCc2ccnc3ccc(OC)cc23)[C@@H](CCN)C1.O=C(O)C(=O)O [TCMDC-139278] | 6.57 | 1 (1: YES) | 2.98 µM
32 | COc1ccc2nc3cc(Cl)ccc3c(NCCCCN3CCNCC3)c2c1.Cl [TCMDC-137578] | 6.18 | 0 (0: NO) | 5.00 µM
33 | O=C(/C=C/c1ccc(Cl)c(Cl)c1)NCCCCCN1CCCC(CNS(=O)(=O)c2cccc(C(F)(F)F)c2)C1 (stereo not drawn) [TCMDC-139597] | 5.06 | 0 (0: NO) | 3.80 µM
34 | CCN(CC)CCOc1ccc(C(O)(C#CC(O)(c2ccc(C)cc2)c2ccc(OCCN(CC)CC)cc2)c2ccc(C)cc2)cc1 (stereo not drawn) [TCMDC-137198] | 6.85 | 1 (1: YES) | 1.62 µM
35 | COc1ccc2nc3cc(Cl)ccc3c(NCCCCNc3c4ccc(Cl)cc4nc4ccc(OC)cc34)c2c1 [TCMDC-138218] | 6.70 | 1 (1: YES) | 14.47 µM
36 | CCN(CC)CCCNc1nccc(N2CCc3ncnc(Nc4ccc(OCc5cccc(F)c5)c(Cl)c4)c3C2)n1 [TCMDC-135406] | 6.14 | 0 (0: NO) | 5.58 µM
37 | Fc1ccc2[nH]c(-c3cccc(-c4ccc(CNCCN5CCNCC5)cc4)c3)nc2c1.O=C(O)C(F)(F)F [TCMDC-132863] | 5.84 | 1 (1: YES) | 24.16 µM
38 | CC(C)(C)OC(=O)NCc1ccc(Nc2nnc(-c3ccc(OCC(=O)NCc4ccc(C(C)(C)C)cc4)c([N+](=O)[O-])c3)o2)cc1 [TCMDC-134991] | 6.15 | 0 (0: NO) | 3.15 µM
39 | O=C(Nc1ccc(Oc2ccccc2)cc1)N(CCN1CCCC1)Cc1ccc(-c2ccc(CN3CCNCC3)cc2)cc1.O=C(O)C(F)(F)F [TCMDC-139652] | 5.99 | 0 (0: NO) | 7.08 µM
40 | COc1ccc(CCNC(C)Cc2ccc(C(=O)Nc3ccc(CC(C)NCCc4cccc(Cl)c4)cc3)cc2)cc1 (stereo not drawn) [TCMDC-139750] | 6.21 | 0 (0: NO) | 2.40 µM
41 | COc1ccc(COc2cc(NCCCN)nc3ccccc23)cc1 [TCMDC-139286] | 6.25 | 1 (1: YES) | 13.98 µM
42 | CN(C)CCCn1c(N)c(-c2nc3ccccc3[nH]2)c2nc(C#N)c(C#N)nc21 [TCMDC-123729] | 6.70 | 1 (1: YES) | 6.93 µM
